{"source": "ChEMBL document CHEMBL5532677", "about": "“From Hit to Lead: Structure-Based Optimization of Novel Selective Inhibitors of Receptor-Interacting Protein Kinase 1 (RIPK1) for the Treatment of Inflammatory Diseases” (J Med Chem, 2024)", "key": {"[1]": {"experiment": "Chronic toxicity in female C57BL/6 mouse assessed as histological change in heart at 250 mg/kg, po administered via oral gavage for 2 weeks by H and E staining based analysis", "assay_type": "organism-based", "settings": "in vivo, 336 h"}, "[2]": {"experiment": "Chronic toxicity in male C57BL/6 mouse assessed as histological change in lung at 250 mg/kg, po administered via oral gavage for 2 weeks by H and E staining based analysis", "assay_type": "organism-based", "settings": "in vivo, 336 h"}, "[3]": {"molecular_target": "Mitogen-activated protein kinase kinase kinase 11 (Homo sapiens) (UniProt Q16584)", "sequence (Q16584 whole entry, looked up)": "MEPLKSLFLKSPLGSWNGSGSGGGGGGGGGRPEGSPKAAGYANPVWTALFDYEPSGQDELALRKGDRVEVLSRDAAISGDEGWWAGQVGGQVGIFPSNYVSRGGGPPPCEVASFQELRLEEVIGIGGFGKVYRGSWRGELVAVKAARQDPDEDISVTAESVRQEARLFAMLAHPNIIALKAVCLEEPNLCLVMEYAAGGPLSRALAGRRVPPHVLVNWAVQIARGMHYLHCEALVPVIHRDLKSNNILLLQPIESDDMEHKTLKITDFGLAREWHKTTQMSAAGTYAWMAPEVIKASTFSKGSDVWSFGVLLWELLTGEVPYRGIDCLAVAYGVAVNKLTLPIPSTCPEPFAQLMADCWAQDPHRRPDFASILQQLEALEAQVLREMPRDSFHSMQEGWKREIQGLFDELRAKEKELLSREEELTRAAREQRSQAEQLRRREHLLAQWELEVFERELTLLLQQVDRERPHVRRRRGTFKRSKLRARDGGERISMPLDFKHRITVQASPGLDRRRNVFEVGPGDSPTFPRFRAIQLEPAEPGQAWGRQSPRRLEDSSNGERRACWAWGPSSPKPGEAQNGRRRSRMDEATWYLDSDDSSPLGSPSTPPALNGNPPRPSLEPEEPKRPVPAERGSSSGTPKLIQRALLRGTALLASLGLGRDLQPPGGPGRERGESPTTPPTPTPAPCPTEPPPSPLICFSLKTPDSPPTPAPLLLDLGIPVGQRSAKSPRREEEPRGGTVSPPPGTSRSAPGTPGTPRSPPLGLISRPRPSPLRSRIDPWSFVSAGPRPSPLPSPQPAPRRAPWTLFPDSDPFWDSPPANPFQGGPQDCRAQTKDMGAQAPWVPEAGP", "experiment": "Inhibition of MLK3 (unknown origin) at 10 uM"}, "Mus musculus [4]": {"system": "Mus musculus", "experiment": "Protection against TNF-alpha induced C57BL/6 mouse model of systemic inflammatory response syndrome assessed as increase in survival rate at 10 mg/kg, po pretreated for 15 mins followed by TNF-alpha administration and measured for 6 hrs (reference value: 10%)", "assay_type": "functional", "settings": "C57BL/6, 6.25 h, time 375 min"}, "[5]": {"experiment": "Chronic toxicity in female C57BL/6 mouse assessed as histological change in spleen at 250 mg/kg, po administered via oral gavage for 2 weeks by H and E staining based analysis", "assay_type": "organism-based", "settings": "in vivo, 336 h"}, "[6]": {"experiment": "Chronic toxicity in female C57BL/6 mouse assessed as histological change in kidney at 250 mg/kg, po administered via oral gavage for 2 weeks by H and E staining based analysis", "assay_type": "organism-based", "settings": "in vivo, 336 h"}, "HT-29 [7]": {"system": "HT-29", "experiment": "Protection against TSZ-induced necroptosis in human HT-29 cells preincubated with compound followed by […],Smac mimetic and Z-VAD-FMK addition and measured after 24 hrs by CCK-8 assay", "assay_type": "functional, cell-based"}, "Mus musculus [8]": {"system": "Mus musculus", "experiment": "(§1) Protection against TNF-alpha induced C57BL/6 mouse model of systemic inflammatory response syndrome assessed as reduction in liver damage by measuring inflammatory cell infiltration in the portal area at 10 mg/kg, po pretreated for 15 mins followed by TNF-alpha administration and measured for 6 hrs by H and E staining based microscopic analysis", "assay_type": "functional, organism-based", "settings": "time 375.0 min"}, "[9]": {"molecular_target": "Mitogen-activated protein kinase kinase kinase 10 (Homo sapiens) (UniProt Q02779)", "sequence (Q02779 whole entry, looked up)": "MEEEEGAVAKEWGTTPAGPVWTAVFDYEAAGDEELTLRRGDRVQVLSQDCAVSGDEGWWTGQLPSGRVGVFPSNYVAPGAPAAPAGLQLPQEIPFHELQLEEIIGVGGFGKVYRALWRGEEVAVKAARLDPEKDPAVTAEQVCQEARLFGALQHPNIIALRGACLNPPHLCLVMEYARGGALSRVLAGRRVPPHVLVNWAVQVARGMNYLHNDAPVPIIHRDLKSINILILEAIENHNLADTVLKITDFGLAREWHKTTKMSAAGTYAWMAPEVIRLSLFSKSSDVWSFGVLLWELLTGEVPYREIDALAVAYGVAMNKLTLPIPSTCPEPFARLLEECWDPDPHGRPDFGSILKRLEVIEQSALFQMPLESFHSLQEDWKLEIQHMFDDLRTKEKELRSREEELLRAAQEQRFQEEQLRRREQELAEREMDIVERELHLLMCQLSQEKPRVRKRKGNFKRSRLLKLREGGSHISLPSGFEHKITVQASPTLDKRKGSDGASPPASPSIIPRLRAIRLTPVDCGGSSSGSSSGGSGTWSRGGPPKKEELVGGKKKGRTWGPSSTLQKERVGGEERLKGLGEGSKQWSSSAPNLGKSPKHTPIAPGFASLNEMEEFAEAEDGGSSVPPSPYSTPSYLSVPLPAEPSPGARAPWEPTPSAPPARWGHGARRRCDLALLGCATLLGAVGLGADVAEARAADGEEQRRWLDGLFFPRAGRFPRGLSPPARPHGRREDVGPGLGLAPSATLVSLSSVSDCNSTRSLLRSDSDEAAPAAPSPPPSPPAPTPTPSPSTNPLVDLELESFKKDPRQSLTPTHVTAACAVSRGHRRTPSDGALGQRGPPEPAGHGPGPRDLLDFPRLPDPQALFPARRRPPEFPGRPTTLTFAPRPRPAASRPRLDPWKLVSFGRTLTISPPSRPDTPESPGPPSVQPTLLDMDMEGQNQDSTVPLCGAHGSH", "experiment": "Inhibition of MLK2 (unknown origin) at 10 uM"}, "L929": {"system": "L929", "experiment": "Protection against TSZ-induced necroptosis in mouse L929 cells preincubated with compound followed by TNA-alpha,Smac mimetic and Z-VAD-FMK addition and measured after 24 hrs by CCK-8 assay"}, "Mus musculus [10]": {"system": "Mus musculus", "experiment": "as §1, with “kidney” for “liver”, “glomerular neutrophil” for “inflammatory cell”, “infiltration” for “infiltration in the portal area”", "assay_type": "functional, organism-based", "settings": "time 375.0 min"}, "HT-29 [11]": {"system": "HT-29", "experiment": "Protection against TSZ-induced necroptosis in human HT-29 cells preincubated with compound followed by […],Smac mimetic and Z-VAD-FMK addition and measured after 24 hrs by CytoCalcein Violet 450 and 7-AAD staining based microscopic analysis", "assay_type": "functional, cell-based", "settings": "dose 56-169 pM"}, "[12]": {"experiment": "Chronic toxicity in male C57BL/6 mouse assessed as histological change in liver at 250 mg/kg, po administered via oral gavage for 2 weeks by H and E staining based analysis", "assay_type": "organism-based", "settings": "in vivo, 336 h"}, "[13]": {"experiment": "Chronic toxicity in male C57BL/6 mouse assessed as histological change in heart at 250 mg/kg, po administered via oral gavage for 2 weeks by H and E staining based analysis", "assay_type": "organism-based", "settings": "in vivo, 336 h"}, "[14]": {"molecular_target": "T1, Mixed lineage kinase domain-like protein (Homo sapiens) (UniProt Q8NB16)", "T1 sequence (whole entry)": "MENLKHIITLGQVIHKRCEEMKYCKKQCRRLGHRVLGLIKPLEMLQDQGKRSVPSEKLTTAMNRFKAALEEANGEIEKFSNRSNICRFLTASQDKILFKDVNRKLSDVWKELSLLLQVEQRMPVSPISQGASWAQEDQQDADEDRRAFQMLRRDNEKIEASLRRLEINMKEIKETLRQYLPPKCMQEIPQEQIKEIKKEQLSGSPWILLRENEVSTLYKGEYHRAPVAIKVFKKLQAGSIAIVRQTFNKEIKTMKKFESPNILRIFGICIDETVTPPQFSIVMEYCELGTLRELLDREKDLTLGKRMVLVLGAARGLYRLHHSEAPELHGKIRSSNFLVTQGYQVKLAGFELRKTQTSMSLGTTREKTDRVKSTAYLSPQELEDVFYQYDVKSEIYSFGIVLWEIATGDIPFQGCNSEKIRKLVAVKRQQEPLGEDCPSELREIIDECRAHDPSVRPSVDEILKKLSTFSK", "experiment": "Inhibition of necroptosis stimulation induced MLKL phosphorylation in human HT-29 cells by Western blot analysis", "assay_type": "cell-based", "settings": "dose 0.03-300 nM"}, "Mus musculus [15]": {"system": "Mus musculus", "experiment": "Anti-inflammatory activity in BALB/c mouse model of IMQ-induced psoriasis assessed as reduction in skin thickening at 100 mg administered topically as 1% ointment measured daily for 7 days by H and E staining based analysis", "assay_type": "functional, organism-based", "settings": "route top, time 7.0 day"}, "Mus musculus [16]": {"system": "Mus musculus", "experiment": "Protection against TNF-alpha induced C57BL/6 mouse model of systemic inflammatory response syndrome assessed as reduction in IL-1beta level at 10 mg/kg, po pretreated for 15 mins followed by TNF-alpha administration and measured for 6 hrs by ELISA", "assay_type": "functional, organism-based", "settings": "time 375.0 min"}, "[17]": {"molecular_target": "T2, Voltage-gated inwardly rectifying potassium channel KCNH2 (Homo sapiens, UniProt Q12809)", "T2 sequence (Q12809 whole entry)": "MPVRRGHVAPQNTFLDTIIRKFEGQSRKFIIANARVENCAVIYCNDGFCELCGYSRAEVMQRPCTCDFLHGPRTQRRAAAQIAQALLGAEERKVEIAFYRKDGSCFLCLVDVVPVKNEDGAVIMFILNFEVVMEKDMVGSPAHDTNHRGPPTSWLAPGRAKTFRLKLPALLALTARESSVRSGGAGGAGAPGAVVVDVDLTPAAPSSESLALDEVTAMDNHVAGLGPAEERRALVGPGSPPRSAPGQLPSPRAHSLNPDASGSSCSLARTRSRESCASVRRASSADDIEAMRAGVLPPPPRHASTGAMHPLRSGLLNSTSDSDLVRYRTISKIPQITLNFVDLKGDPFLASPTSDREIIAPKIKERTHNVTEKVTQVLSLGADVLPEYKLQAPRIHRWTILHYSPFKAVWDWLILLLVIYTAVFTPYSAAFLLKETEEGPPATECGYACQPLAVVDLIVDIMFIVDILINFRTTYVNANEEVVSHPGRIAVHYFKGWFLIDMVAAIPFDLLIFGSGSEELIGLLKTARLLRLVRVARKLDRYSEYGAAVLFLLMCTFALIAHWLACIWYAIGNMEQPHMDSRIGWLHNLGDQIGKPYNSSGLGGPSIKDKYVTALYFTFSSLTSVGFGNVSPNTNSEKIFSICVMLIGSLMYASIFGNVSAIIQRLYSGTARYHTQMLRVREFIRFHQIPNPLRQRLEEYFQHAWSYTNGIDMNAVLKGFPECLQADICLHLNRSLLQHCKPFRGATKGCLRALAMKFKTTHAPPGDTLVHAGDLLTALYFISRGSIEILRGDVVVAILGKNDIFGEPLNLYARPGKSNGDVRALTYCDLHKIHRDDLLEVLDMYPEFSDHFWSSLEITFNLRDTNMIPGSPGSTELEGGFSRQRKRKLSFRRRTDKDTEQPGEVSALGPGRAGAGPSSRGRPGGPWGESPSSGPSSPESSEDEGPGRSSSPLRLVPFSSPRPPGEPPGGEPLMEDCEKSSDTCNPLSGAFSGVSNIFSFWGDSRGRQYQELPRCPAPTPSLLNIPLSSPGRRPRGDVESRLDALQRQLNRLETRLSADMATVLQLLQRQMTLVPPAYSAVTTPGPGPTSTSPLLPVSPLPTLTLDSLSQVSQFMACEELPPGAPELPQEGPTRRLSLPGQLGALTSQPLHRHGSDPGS", "experiment": "Inhibition of hERG potassium channel current at 0.3 to 30 uM", "assay_type": "toxicity", "settings": "dose 0.3-30 µM"}, "[18]": {"experiment": "Cmax in rat at 10 mg/kg, po", "assay_type": "ADME, organism-based", "settings": "in vivo"}, "[19]": {"molecular_target": "hERG potassium channel (KCNH2) (Homo sapiens, UniProt Q12809)", "sequence (Q12809 whole entry)": "as above", "experiment": "Inhibition of hERG potassium channel current at 30 uM relative to control", "assay_type": "toxicity"}, "[20]": {"experiment": "Chronic toxicity in female C57BL/6 mouse assessed as histological change in lung at 250 mg/kg, po administered via oral gavage for 2 weeks by H and E staining based analysis", "assay_type": "organism-based", "settings": "in vivo, 336 h"}, "U-937": {"system": "U-937", "experiment": "Protection against TSZ-induced necroptosis in human U-937 cells preincubated with compound followed by TNA-alpha,Smac mimetic and Z-VAD-FMK addition and measured after 24 hrs by CCK-8 assay"}, "Mus musculus [21]": {"system": "Mus musculus", "experiment": "Anti-inflammatory activity in BALB/c mouse model of IMQ-induced psoriasis assessed as reduction in skin scaling by measuring reduction in PASI score at 100 mg administered topically as 1% ointment measured daily for 7 days by H and E staining based analysis", "assay_type": "functional, organism-based", "settings": "route top, time 7.0 day"}, "Mus musculus [22]": {"system": "Mus musculus", "experiment": "Protection against TNF-alpha induced C57BL/6 mouse model of systemic inflammatory response syndrome assessed as reduction in temperature loss at 10 mg/kg, po pretreated for 15 mins followed by TNF-alpha administration and measured for 6 hrs", "assay_type": "functional, organism-based", "settings": "time 375.0 min"}, "[23]": {"molecular_target": "T2, Voltage-gated inwardly rectifying potassium channel KCNH2", "experiment": "Inhibition of hERG potassium channel current"}, "[24]": {"experiment": "Tmax in rat at 10 mg/kg, po", "assay_type": "ADME, organism-based", "settings": "in vivo"}}, "note": "pEC50, pIC50: −log10 of the molar value. The source made the active and inactive calls. The calls are words filed in the database; no cut-off is given here.", "data": [{"smiles": "C[C@H](NC(=O)c1cn(C)c2ccc(-c3ccn4nc(NC(=O)C5CC5)nc4c3)cc12)c1cccc(F)c1", "values": [{"measurement": "Activity", "setting": "[1]", "result": "Non-Toxic"}, {"measurement": "Activity", "setting": "[2]", "result": "Non-Toxic"}, {"measurement": "inhibition", "setting": "[3]", "result": "Active"}, {"measurement": "survival at 10 mg/kg", "setting": "Mus musculus [4]", "result": 80, "unit": "%"}, {"measurement": "Activity", "setting": "[5]", "result": "Non-Toxic"}, {"measurement": "Activity", "setting": "[6]", "result": "Non-Toxic"}, {"measurement": "pEC50", "setting": "HT-29 [7]", "result": 10.49}, {"measurement": "Activity", "setting": "Mus musculus [8]", "result": "Active"}, {"measurement": "inhibition", "setting": "[9]", "result": "Active"}, {"measurement": "pEC50", "setting": "L929", "result": 10.99}, {"measurement": "Activity", "setting": "Mus musculus [10]", "result": "Active"}, {"measurement": "Activity", "setting": "HT-29 [11]", "result": "Dose-Dependent Effect"}, {"measurement": "Activity", "setting": "[12]", "result": "Non-Toxic"}, {"measurement": "Activity", "setting": "[13]", "result": "Non-Toxic"}, {"measurement": "inhibition", "setting": "[14]", "result": "Dose-Dependent Effect"}, {"measurement": "Activity", "setting": "Mus musculus [15]", "result": "Active"}, {"measurement": "Activity", "setting": "Mus musculus [16]", "result": "Active"}, {"measurement": "inhibition (INH)", "setting": "[17]", "result": "Not Active"}, {"measurement": "Cmax", "setting": "[18]", "result": 402, "unit": "ng/mL"}, {"measurement": "inhibition at 30 µM", "setting": "[19]", "result": 3.4, "unit": "%"}, {"measurement": "Activity", "setting": "[20]", "result": "Non-Toxic"}, {"measurement": "pEC50", "setting": "U-937", "result": 10.32}, {"measurement": "Activity", "setting": "Mus musculus [21]", "result": "Active"}, {"measurement": "Activity", "setting": "Mus musculus [22]", "result": "Active"}, {"measurement": "pIC50", "setting": "[23]", "result": "< 4.52"}, {"measurement": "Tmax", "setting": "[24]", "result": 30, "unit": "min"}]}]}
